Measured values from ChEMBL document CHEMBL1201862, “PubChem BioAssay data set” (2004).
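Following 48 hours of exposure in 96-well plates, responses at five concentrations were used to interpolate endpoints linearly. GI50 = concentration required for 50% inhibition of growth.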 Active and inactive are the calls of the source. Cut-off read from the data, not from the text of the source: active = GI50 up to about 1.1 µM and inactive = higher.

Legend:
Assay in all cases: DTP human tumour cell line panel, 48 h
SF-539 = system: SF-539
IGROV-1 = system: IGROV-1
HCT-15 = system: HCT-15
TK-10 = system: TK-10
Malme-3M = system: Malme-3M
SK-MEL-28 = system: SK-MEL-28
NCI-H23 = system: NCI-H23
RPMI-8226 = system: RPMI-8226
MDA-MB-231 = system: MDA-MB-231
MCF7 = system: MCF7
HL-60 = system: HL-60
MDA-MB-435 = system: MDA-MB-435
NCI-H522 = system: NCI-H522
SNB-75 = system: SNB-75
UO-31 = system: UO-31
SK-MEL-5 = system: SK-MEL-5
HCC 2998 = system: HCC 2998
OVCAR-3 = system: OVCAR-3
MOLT-4 = system: MOLT-4

Structure (SMILES) | GI50 (SF-539) | GI50 (IGROV-1) | GI50 (HCT-15) [µM] | GI50 (TK-10) | GI50 (Malme-3M) | GI50 (SK-MEL-28) | GI50 (NCI-H23) | GI50 (RPMI-8226) | GI50 (MDA-MB-231) | GI50 (MCF7) | GI50 (HL-60) | GI50 (MDA-MB-435) | GI50 (NCI-H522) | GI50 (SNB-75) | GI50 (UO-31) | GI50 (SK-MEL-5) | GI50 (HCC 2998) | GI50 (OVCAR-3) | GI50 (MOLT-4)
CC(C)(Sc1cc(C(C)(C)C)c(O)c(C(C)(C)C)c1)Sc1cc(C(C)(C)C)c(O)c(C(C)(C)C)c1 [PROBUCOL] | > 100 µM (inactive) | > 100 µM (inactive) | > 100 | > 100 µM (inactive) | > 100 µM (inactive) | > 100 µM (inactive) | > 100 µM (inactive) | > 100 µM (inactive) | > 100 µM (inactive) | > 100 µM (inactive) | 1.49 µM (inactive) | > 100 µM (inactive) | > 100 µM (inactive) | > 100 µM (inactive) | > 100 µM (inactive) | > 100 µM (inactive) |  |  | 
NC1=NC(=O)[C@H](Cc2c[nH]c3ccccc23)N1C(=O)OCc1ccccc1 |  | 77.6 µM (inactive) | > 100 | > 100 µM (inactive) | 68.7 µM (inactive) | < 0.01 µM (active) | 38.1 µM (inactive) |  | > 100 µM (inactive) | 81.8 µM (inactive) | 31.7 µM (inactive) | 56.9 µM (inactive) | 37 µM (inactive) | 50.9 µM (inactive) | 38.1 µM (inactive) | 40.3 µM (inactive) | > 100 µM (inactive) | 59.7 µM (inactive) | 28.7 µM (inactive)
O=C1C=CC(=O)c2c1ccc1c3ccccc3n(Cc3ccc([N+](=O)[O-])cc3)c21 | > 100 µM (inactive) | > 100 µM (inactive) | 70.1 | > 100 µM (inactive) |  | > 100 µM (inactive) | > 100 µM (inactive) | > 10 µM (inactive) | > 100 µM (inactive) | > 100 µM (inactive) | 14 µM (inactive) | > 100 µM (inactive) | 26.6 µM (inactive) | > 100 µM (inactive) | > 100 µM (inactive) | > 100 µM (inactive) | > 100 µM (inactive) | > 100 µM (inactive) | 20.3 µM (inactive)
CCc1ccc2c(c1)/C(=C1/Nc3ccccc3/C1=N/O)C(=O)N2 |  | 5.08 µM (inactive) | 3.53 | 11.5 µM (inactive) | 3.72 µM (inactive) | 12.9 µM (inactive) | 5.18 µM (inactive) | 5.15 µM (inactive) | 20 µM (inactive) | 1.66 µM (inactive) |  | 7.55 µM (inactive) | 3.43 µM (inactive) | 11.8 µM (inactive) | 4.12 µM (inactive) | 3.7 µM (inactive) | 3.3 µM (inactive) | 3.4 µM (inactive) | 4.3 µM (inactive)
CC1OC(n2cc(F)c(=O)[nH]c2=O)C(O[Si](C)(C)C(C)(C)C)C1O[Si](C)(C)C(C)(C)C (stereo not drawn) | 12.6 µM (inactive) | 13.3 µM (inactive) | 12.9 | 10.7 µM (inactive) | 14.9 µM (inactive) |  | 10.6 µM (inactive) | 11.6 µM (inactive) | 5.78 µM (inactive) | 6.76 µM (inactive) | 5.93 µM (inactive) | 17.9 µM (inactive) | 4.34 µM (inactive) | 15.5 µM (inactive) | 12.8 µM (inactive) | 14.9 µM (inactive) | 13.4 µM (inactive) | 15 µM (inactive) | 13.2 µM (inactive)
O=C(Nc1cccc2ccccc12)c1ccccc1 | 64.7 µM (inactive) | > 100 µM (inactive) | 98.2 | > 100 µM (inactive) | 88.3 µM (inactive) | > 100 µM (inactive) | > 100 µM (inactive) |  | > 100 µM (inactive) | 8.89 µM (inactive) | > 100 µM (inactive) | 22.6 µM (inactive) | 68.7 µM (inactive) | 21.8 µM (inactive) | > 100 µM (inactive) | 53.5 µM (inactive) | > 100 µM (inactive) | 11.8 µM (inactive) | 
